Legend:
[1] = tested on: actinic keratoses lesions; assay: Phototherapy of actinic keratoses lesions with topical photosensitizer prodrug and red light emitting OLED (Device A); type: in vivo, person; conditions: 20% topical solution on individual lesions; illuminated about 14-18 hours after application with red OLED Device A
Excerpt: 5-Aminolevulinic acid HCl (20% topical solution, available as LEVULAN® KERASTICK® from DUSA® Pharmaceuticals) is topically applied to individual lesions on a person suffering from actinic keratoses.
Methyl aminolevulinate (16.8% topical cream, available as METVIXIA® Cream from GALERMA LABORATORIES, Fort Worth, Tex., USA) is topically applied to individual lesions on a person suffering from actinic keratoses.

[2] = tested on: age-related macular degeneration; assay: Verteporphin phototherapy of age-related macular degeneration, retina illuminated with red OLED (Device A); conditions: about 6 mg/m^2 i.v. over about 10 minutes; retina illuminated about 15 minutes after start of infusion with red OLED Device A
[3] = tested on: pathological myopia; assay: Verteporphin phototherapy of pathological myopia, retina illuminated with red OLED (Device A); conditions: about 6 mg/m^2 i.v. over about 10 minutes; retina illuminated about 15 minutes after start of infusion with red OLED Device A
[4] = tested on: presumed ocular histoplasmosis; parameters: species or system person; conditions: in vivo, iv

SMILES | number or severity of the lesions after the treatment [1] | patient's vision after treatment [2] | patient's vision after treatment [3] | patient's vision after treatment [4]
Cl.NCC(=O)CCC(=O)O [5-Aminolevulinic acid HCl] | anticipated to be reduced | – | – | –
C=Cc1c(C)c2cc3nc(cc4[nH]c(cc5nc(cc1[nH]2)C(C)=C5CCC(=O)O)c(CCC(=O)OC)c4C)[C@@]1(C)C3=CC=C(C(=O)OC)[C@H]1C(=O)OC [Verteporphin] | – | anticipated to be stabilized | anticipated to be stabilized | anticipated to be stabilized
